How the values were obtained:
Experiment in all cases: biochemical
[1] = biological target: drug-resistant HIV-1 PR (PR02-A) harboring L10I/G48S/I54V/V82F/L90M mutations (Human immunodeficiency virus type 1 group M subtype B, UniProt P12497, G536S/I542V/L498I/L578M/V570F)
Description: (§1) In vitro transcription and cell-free protein synthesis were performed using WEPRO7240 wheat germ extract (CellFree Sciences, Yokohama, Japan). Transcription was performed using SP6 RNA polymerase, as described previously ([Matsunaga et al., 2014]). The translation reaction was performed in bilayer mode with slight modifications. Briefly, translation mixture (forming the bottom layer) consisted of 10 μl of each mRNA (usually 30–35 μg), 10 μl of WEPRO7240 (CellFree Sciences, Yokohama, Japan), and 0.8 μl of 1 μg/μl creatine kinase (Roche Diagnostics K. K., Tokyo, Japan) in 20.8 μl of SUB-AMIX® (CellFree Sciences, Yokohama, Japan). SUB-AMIX (206 μl) was placed on top of the translation mixture, thus forming the top layer. After incubation at 16°C for 16 h, synthesized proteins were confirmed by immunoblotting. For biotinylation of the substrate, 1 μl (50 ng) of crude biotin ligase (BirA) expressed in a wheat germ cell-free system was added to the bottom layer, and 0.5 μM (final concentration) of D-biotin (Nacalai Tesque, Inc., Kyoto, Japan) was added to both the top and bottom layers, as described previously ([Matsuoka et al., 2010]). As an initial experimental test, radiolabeled protein was produced by cell-free synthesis to confirm the yield and solubility of generated proteins as described previously ([Kamura et al., 2005]). In actual drug susceptibility testing, quantitations of synthesized HIV-1 PR proteins were performed by densitometric scanning of Coomassie Brilliant Blue (CBB)-stained bands as compared with purified HIV-1 PR or bovine serum albumin (BSA) ([Madin et al., 2000]).
(§2) CFDSA was performed using cell-free–synthesized PR, substrate peptide, and the AlphaScreen® system (PerkinElmer, Boston, MA, USA). […] The mixture was incubated at 37°C for 30 min in a 384-well Alphaplate (PerkinElmer). The enzymatic reaction was initiated by the addition of 5 μl of 0.25 μM cell-free–synthesized GST-p2/p7-bls substrate to each well, followed by incubation at 37°C for 2 h. Detection of PR activity was performed essentially as described in the AlphaScreen IgG detection kit instruction manual (PerkinElmer). Briefly, 10 μl of detection mixture containing 20 mM Tris-HCl (pH 7.5), 0.2 mM DTT, 5 mM MgCl2, 5 μg/ml anti-GST antibody, 1 mg/ml BSA, 0.1 μl streptavidin-coated donor beads, and 0.1 μl anti-IgG acceptor beads were added to each well of the 384-well plate, followed by incubation at 23°C for 1 h in the dark. Luminescence signals were analyzed with the AlphaScreen detection program using the EnSpire software (PerkinElmer), and light intensities in the presence of the serially diluted inhibitors were used to calculate their IC50 values. PI-resistance levels were determined by comparing the IC50 values of drug-resistant PR with those of NL4-3 PR. The results for each PR were normalized based on protein productivity, as determined by liquid scintillation counting. IC50 values were calculated using XLfit (ID BUSINESS SOLUTIONS, Guildford, UK). The criteria for CFDSA measurement of resistance were as follows: fold resistance value (FRV) = IC50 ratio of test PR/IC50 ratio of WT PR.
(§3) For the quantitative and high-throughput measurement of HIV-1 PR activity using AlphaScreen technology, we designed a reporter substrate comprising a partial Gag p2-p7 junction peptide flanked by N-terminal GST and C-terminal biotin binding sequence (GST-p2/p7-biotin) as described in Figure 2A.

WT HIV-1 PR (NL4-3) = WT HIV-1 PR (NL4-3) (Human immunodeficiency virus type 1 group M subtype B, UniProt P12497)
Description: as §1, §2, §3

[2] = system: drug-resistant HIV-1 PR (PR02-A) harboring L10I/G48S/I54V/V82F/L90M mutations; conditions: IC50 of drug-resistant PR divided by IC50 of WT PR
Description: as §1, §2, §3

Compound | IC50 [1] [nM] | IC50 (WT HIV-1 PR (NL4-3)) [nM] | fold-resistance to WT PR (FRV, DR/WT) [2] [fold]
CC(C)CN(C[C@@H](O)[C@H](Cc1ccccc1)NC(=O)O[C@H]1CCOC1)S(=O)(=O)c1ccc(N)cc1 [APV, amprenavir] | 93.5 | 23.2 | 4.0
COC(=O)N[C@H](C(=O)N[C@@H](Cc1ccccc1)[C@@H](O)CN(Cc1ccc(-c2ccccn2)cc1)NC(=O)[C@@H](NC(=O)OC)C(C)(C)C)C(C)(C)C [ATV, atazanavir] | 137 | 17.8 | 7.7
